According to patent US4886822A, “Substituted anilide compounds which are useful in the treatment of arrhythmia” (Kowa Company, Ltd., priority 1987, dated 1989):
Where a name gives a salt, the structure may show the parent alone.

How the values were obtained:
[1] = test system: Chloroform-Induced Arrhythmia; test: Activity on Chloroform-Induced Arrhythmia (ventricular fibrillation); assay type: in vivo, ICR-strain mice; conditions: Mus musculus, po, 30 mg/kg orally; ICR mice, 10 per group; chloroform vapor; read-out: Percent VF inhibition
Experimental: Activity on Chloroform-Induced Arrhythmia: ICR-strain mice having a body weight of 20 to 35 g (10 per group) were used, and the test compound was administered orally in a dose of 30 mg/kg. The mice were put in a 1-liter beaker, and observed for 20 minutes for their symptoms or conditions. Then, they were placed in a vessel saturated with a vapor of chloroform, and the time which elapsed until the animals ceased to breathe was measured. After the stopping of the breathing, the mice were taken out from the vessel and their cardiograms (second induction) were recorded by a memory oscilloscope (VC-10, made by Nippon Kodensha) and a linear corder (WTR331 made by Watanabe Measuring Instrument Co., Ltd.). The occurrence of ventricular fibrillation (VF) was evaluated by the cardiograms. The results are shown in Table 1 by percent VF inhibition.

[2] = test system: Ouabain-Induced Arrhythmia; test: Activity on Ouabain-Induced Arrhythmia; assay type: in vivo, Male hybrid adult dogs; conditions: Canis lupus familiaris, iv; continuous injection into femoral vein 0.5 mg/kg/min; anaesthetized dogs; n=3 (range); read-out: Dose required complete inhibition
Experimental: Activity on Ouabain-Induced Arrhythmia: Male hybrid adult dogs weighing 9 to 17 kg were anaesthetized, and fixed in the supine position under artificial respiration. The blood pressures, heart rates and second induced cardiograms (using RA-101 made by San-ei Measuring Instrument Co., Ltd.) of the animals were measured. Ouabain was first intravenously administered in a dose of 40 μg/kg, and 30 minutes later in a dose of 20 μg/kg. Furthermore, until continuous ventricular arrhythmia was obtained, 10 μg/kg of ouabain was cumulatively administered at intervals of 15 minutes. The ventricular automaticity was examined substantially in accordance with the method of Roberts et al. (J. Pharmacol. Exp. Ther. 117, 374-384, 1956). The peripheral end of the right cervical vagus nerve was stimulated with short waves (0.4-1.9 V, 1 millisecond, 20 Hz) using an electrical stimulating device (MSE-3R made by Nippon Kodensha) for 10 seconds. […] After the administration, the vagus nerve was stimulated every minute, and the inhibition of extrasystole was observed. At the same time, the presence or absence of restoration of the cardiogram to a normal rhythm was observed using the inversion of R waves as an index in ventricular arrhythmia. The anti-arrhythmic action was evaluated such that when the normal sinus rhythm was restored and extrasystole was not induced by stimulation of the vagus nerve, the result was rated as complete inhibition.

[3] = cited from earlier work; for side effects: known/reported side effects (background)

Compound	inhibition in vivo at 30 mg/kg [1] [%]	also measured
COc1ccc(-c2ccccn2)c(NC(=O)CC(C)N)c1 (stereo not drawn) [Example 1, 3-Amino-5'-methoxy-2'-(2-pyridyl)butynanilide]	80	
CCOc1ccc(-c2cccnc2)c(NC(=O)CC(C)N)c1.Cl.Cl (stereo not drawn) [Example 33, 3-Amino-5'-ethoxy-2'-(3-pyridyl)butyranilide dihydrochloride]	80	ED100 [2]: 2 to 3 mg/kg
CC(N)CC(=O)Nc1c(OCC(F)(F)F)cccc1-c1cccnc1 (stereo not drawn) [Example 23, 3-Amino-2'-(3-pyridyl)-6'-(2,2,2-trifluoroethoxy)butyranilide]	70	
Cc1ccc(-c2ccccn2)c(NC(=O)CC(C)N)c1 (stereo not drawn) [Example 8, 3-Amino-5'-methyl-2'-(2-pyridyl)butyranilide]	90	
C=CCOc1ccc(-c2cccnc2)c(NC(=O)CC(C)N)c1 (stereo not drawn) [Example 28, 5'-Allyloxy-3-amino-2'-(3-pyridyl)butyranilide]	70	ED100 [2]: 1.5 to 2.8 mg/kg
COc1ccc(-c2nc3cccnc3[nH]2)c(NC(=O)CC(C)N)c1 (stereo not drawn) [Example 46]	80	
COc1ccc(-c2ncc[nH]2)c(NC(=O)CC(C)N)c1 (stereo not drawn) [Example 45, 3-Amino-2'-(2-imidazolyl)-5'-methoxybutyranilide]	80	
CC(C)N(CCC(C(N)=O)(c1ccccc1)c1ccccn1)C(C)C (stereo not drawn) [disopyramide]		action on the myocardium ([3]; background): inhibiting action on the myocardium; side effects [3]: thirst, ischurin, constipation, dizziness and vomiting
CC(N)CC(=O)Nc1cc(OCC(F)(F)F)ccc1-c1cccnc1 (stereo not drawn) [Example 20, 3-Amino-2'-(3-pyridyl)-5'-(2,2,2-trifluoroethoxy)butyranilide monohydrochloride]	100	
Cc1cccc(C)c1OCC(C)N (stereo not drawn) [mexiletine, reference compound]	50	side effects [3]: side effects on the digestive system and the meuropsychotic system with a high frequency; activity on the central nervous system ([3]; reported (background)): has activity on the central nervous system; ED100 [2]: 2 to 4.5 mg/kg
COc1ccc(C(O)c2cccnc2)cc1NC(=O)CC(C)N (stereo not drawn) [Example 56, 3-Amino-5'-[hydroxy-(3-pyridyl)methyl]-2'-methoxybutyranilide hydrochloride]	70	
C=CCOc1ccc(-c2ccccn2)cc1NC(=O)CC(C)N (stereo not drawn) [Example 30, 2'-Allyloxy-3-amino-5'-(2-pyridyl)butyranilide dihydrochloride]	70	
